# Publication PMC11468675, “Near‐Infrared Bodipy‐Based Molecular Rotors for β‐Amyloid Imaging In Vivo” (Advanced Healthcare Materials, 2023)
# Values joined by “and” are separate entries in the source; they are usually repeats but may differ in a detail not shown here. Identical values can stand only once.
# Assays:
# Aβ1–42 aggregates [1] = molecular target: T1, Aβ1–42 aggregates (Homo sapiens, UniProt P05067); test: Fluorescence-based saturation binding assay; conditions: 10% EtOH/PBS, triplicate
# T1 construct: purchased Shanghai Macklin Biochemical Technology Co., Ltd
# T1 sequence (P05067 672-713 limits assumed): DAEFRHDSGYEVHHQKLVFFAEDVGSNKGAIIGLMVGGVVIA
# Aβ1–42 aggregates [2] = molecular target: T1, Aβ1–42 aggregates; test: Fluorescence enhancement assay with Aβ aggregates; type: binding; conditions: for Em, with Aβ / Em shift, with Aβ: 10% ethanol/PBS; for Em shift, with Aβ: + red shift, − blue shift; for Fluorescence enhancement (Fold = FL intensity probe+Aβ / probe): probe 1 μM in 10% EtOH/PBS, Aβ aggregates 33 µg mL−1
# Text: Thioflavin‐T (ThT) is the gold standard probe, commonly used as an in vitro fluorescence stain to determine the existence of Aβ aggregates. The ThT probe has a typical D–A structure, and its HOMO and LUMO electron clouds are redistributed from the donor (HOMO) to the acceptor (LUMO), which is typical for ICT probes.^[ [46] ^] In addition, the single bond between the benzene ring in the ThT probe and the benzothiazole salt, and the N,N‐dimethylamino group attached to the benzene ring can rotate freely, resulting in ThT becoming a molecular rotor. After ThT binds to Aβ, the rotation of the molecular rotor is restricted, and most of the electrons in the excited state return to the ground state by radiative transition, resulting in a substantial increase in fluorescence. […] The fluorescence response of TPyrBDP, TPipBDP, and THAIBDP with Aβ1–42 aggregates and BSA was evaluated in PBS (10% ethanol) solution. The formation of Aβ1–42 aggregates was characterized by TEM. The morphology of Aβ1–42 aggregates was filamentous (Figure S25b, Supporting Information), while the morphology of Aβ1–42 oligomers was a point‐like structure with a minimum diameter 44 nm (Figure S25a, Supporting Information). The images confirmed that Aβ1–42 aggregates were prepared successfully. As shown in Figure 2c‐f and Table S1, Supporting Information, a 42.5‐fold enhancement of fluorescence was observed when TPyrBDP interacted with the Aβ1–42 aggregates. […] The results confirmed the calculation results in Figure 1. […] In Figure 1b, the three probes are inserted into the hydrophobic pocket of Aβ1–42 aggregates when they interact with Aβ1–42 aggregates, resulting in changes of λ em. The fluorescence response of BSA with probes may cause non‐specific fluorescence enhancement, thus generating false signals. Therefore, we evaluated the interaction between the three probes and BSA. […] The selectivity of TPyrBDP, TPipBDP, and THAIBDP to different ions and amino acids was also evaluated. […] The ions and amino acids had no influence on the fluorescence enhancement of the probes. To quantify the binding affinity (K d) of the probes to Aβ1–42 aggregates, fluorescence‐based saturation binding assays were conducted using Aβ1–42 aggregates. The lower the K d values, the better the affinities.
# To a solution of HFIP (600 μL) was added hum an Aβ42 (1 mg). After that, the solution was ultrasonicall y t reated for 2 min to destroy the oligomer probabl y formed, followed b y placing the mixture into an ice bath for 2 h. The solution was dispensed 20 μL per cent rifuge tube, dried by nitro gen, and stored at −80 °C.
# To a centrifuge tube (containing 33 μg of Aβ42) was added 540 μL of PBS and 1% hydrox yl amine solution (60 μL); the solution was s haken on a shaker (300 rpm) at 37 °C for 72-96 h to form the Aβ42 aggregates. The Aβ42 aggregates were characterized by transmission electron microscop y (TEM).
# Fluorescence Enhancement Assay
# To a solution of probes were added pretreated Aβ42 aggregates (33 μg) or bovine serum albumin (BSA). The mix ture (the final concentration of probes was 1μM in 10% EtOH/PBS) was immediatel y transferred to a fluorescence spectrophot ometer (U-3900H, HITACHI, J apan) to record their spectrum (Ex slit = 10 nm, Em slit = 20 nm).
# The probes alone (1μM in 10% EtOH/PBS), PBS, and BSA were also tested under the same conditions. The fluorescence enhancem ent was calculated usin g the followin g formula: fold = the fluorescence intensit y of the probe with Aβ42 or BSA/the fluorescence intensit y of probe alone. […]
# (1 picture or pasted object on this page, not shown here)
# Aβ1–42 aggregates [3] = molecular target: T1, Aβ1–42 aggregates; test: In vitro Aβ42 aggregate staining in solution (CLSM); type: binding; conditions: probe 5 µM, ThT 10 µM
# Protocol: In Vitro Aβ42 staining in solution
# Aβ42 aggregates were prepared according to the literature reported method 2. Aβ42
# aggregate solution (20 μL) was added dropwise to a slide (CITOTEST), and then spread
# until dry. ThT (10 μM, 20 μL) was added dropwise and spread until it was dry. Prob es
# were added dropwise and spread until dr y. Anti-fluorescence quenchin g reagent (10-20
# μL) was added dropwise and covered with a cover slide. The fluorescence signal was
# captured b y C LSM. λex (ThT) = 488 nm, λem (ThT) = 508-550 nm; λex (probe) = 633 nm,
# [4] = molecular target: Aβ plaques in brain slices (Homo sapiens, UniProt P05067); test: In vitro brain slice fluorescence staining, co-staining with ThT; conditions: Tg mice slices, 13-month-old, female
# Chain of Aβ plaques in brain slices (P05067 672-711 limits assumed): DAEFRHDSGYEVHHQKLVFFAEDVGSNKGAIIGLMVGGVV
# Protocol: To confirm whether the probes could bind Aβ deposits in brain slices, the fluorescence staining experiment were performed using slices of Tg mice (13‐month‐old, female). The staining results were imaged using CLSM. To ensure the accuracy of the staining results, commercial fluorescent dye ThT was used to co‐stain the same sections. The fluorescence signals of the slices were acquired at the same position using different channels of the CLSM. As shown in Figure 4 and Figure S27–S29, Supporting Information, Aβ plaques were highlighted by the probes with a high signal‐to‐background ratio. In contrast, there was no fluorescence signal for wild‐type slices (Figures S30–S32, Supporting Information). Since Aβ plaques are abundantly produced in the hippocampal and cortical regions of the brain, we imaged the corresponding regions of the slices, respectively. The staining results with ThT (Figure 4a,b,i,j,q,r) are shown in green, and the staining results of the probes TPyrBDP (Figure 4c,d), TPipBDP (Figure 4k,l), and THAIBDP (Figure 4s,t) are shown in red. All three probes could stain Aβ plaques both in the hippocampal and cortical regions successfully, and the corresponding merged image further confirmed the staining results. To quantify the colocalization effect, the Pearson correlation coefficients (R‐value) were calculated using ImageJ software. The closer the R‐value is to 1, the better the colocalization of the probe and ThT.
# (§1) In Vitro Brain Slice Fluorescence Staining
# The paraffin-embedded blank sections (5 μm) were immersed in x ylene for 5 min for deparaffinization and then washed with ethanol for 2 min and water for 5 min. […]
# Human blood (1 m L, provided b y China-J apan Friendly Hospital, Beijing, China) was first diluted with 2 m L of PBS solution; the sample was centrifugated for 10 min (8000 rpm) and washed with PBS 5 times to separate red blood cells from serum. […] The supernatant (100 μL) was transferred to 96-well plates, and its ultraviolet absorption (Ex = 490 nm) was evaluated. […]
# Cytotoxicity MTT assay = type: cell-based; conditions: rat, PC12 cells, read-out: Cell viability
# Protocol: The cells used for the cyt otox icit y t est were PC12, purchased from the Chinese National Infrastructure of Cell Line Resource. The experiment was divid ed into two parts, cell culture, and c yt otox icit y test. The PC12 cells were first cultured in cell culture fluid (high-glucose DMEM/heat-inactivated FBS/ heat-inactivated HS /penicillin and streptomycin = 100: 5: 5: 1, v/v) under 5% CO2 at 37 °C. After a period of incubation, PC12 were transferred into a sterile 96-well plate (1 × 10^4 cells per well) and cultured
# for 24 h under 5% CO2 at 37 °C. After that, the cell culture fluid was removed, and gradient concentrations of probes (TP yrBDP, TPipBDP, THAIBDP), Aβ in the cell culture fluid (0, 2, 5, 10, 12, and 15 μM), or probes+ Aβ in th e cell culture fluid (5 μM probe + 10 μM Aβ) were added into the 96-well plate and incubat ed for another 24 h.
# After that, the gradient concentration of probes or Aβ was removed and MTT (5× MTT was diluted into 1× MTT using dilution buffer, 50 μL per well) was added; t he mix ture was incubated at 37 °C for 4 h. The supernatant was removed, and form azan (150 μL per well) was added; the mix ture was placed on a shaker to be mix ed well. The cell viabilit y was determined by a microplate reader at 490 nm.
# Hemolysis rate assay = type: cell-based; conditions: human, human red blood cells separated from whole blood, probe up to 100 µM, room temperature
# Protocol: A cytotoxicity assay is one of the methods to evaluate the biocompatibility of probe molecules. Probes are generally considered to have low cytotoxicity when the cell viability is above 80%. Therefore, the cytotoxicity of TPyrBDP, TPipBDP, and THAIBDP was evaluated using PC12 cells using a standard MTT assay method. […] The hemolysis rate of probes is one of the common methods to evaluate the effect of probes on the blood of live animals. Therefore, the hemolysis rate of probes TPyrBDP, TPipBDP, and THAIBDP with blood samples was also evaluated. […] Therefore, the probes were suitable for subsequent cell experiments and animal experiments.
# as §1
# The paraffin-embedded blank sections (5 μm) were immersed in x ylene for 5 min for deparaffinization and then washed with ethanol for 2 min and water for 5 min. The brain slices were incubated with 40 μL of 10 mg/ m L ThT for 5 min and washed with 50% ethanol solution for 3 min. Next, the brain sl ices were incubated with 40 μL of 1 μM probes for 20 min. After absorbin g th e residual liquid with dust-free paper, th e antifluorescence attenuating agent was added dropwise, and neutral gum was used for mounting. The slices were then placed under a laser confocal microscope (Lecia SP5) […]
# Hemolysis Rate (HR) Assay
# Human blood (1 m L, provided b y China-J apan Friendly Hospital, Beijing, China) was first diluted with 2 m L of PBS solution; the sample was centrifugated for 10 min (8000 rpm) and washed with PBS 5 times to separate red blood cells from serum. Finall y, the red blood cells were dispersed in 10 m L of P BS solution, from which 0.2 m L was taken, and 0.8 m L of different reagents (P BS, DI water, and 10, 20, 30, 50, and 100 μM of probes) was added. After mix ing evenl y, the samples were allowed to stand still for 3 h at room temperature and centrifuged (12,000 rpm, 5 min) to determine hemolysis circumstances. The supernatant (100 μL) was transferred to 96-well plates, and its ultraviolet absorption (Ex = 490 nm) was evaluated. […]
# [5] = test system: Aβ1–42 aggregates in PC12 cells; test: Cell imaging of Aβ1–42 aggregates, co-staining with ThT; type: cell-based
# Text: PC12 cells were used to study the affinity between TPipBDP and Aβ1–42 aggregates. Aβ1–42 aggregates have great neurotoxicity to interfere with the normal function of the brain. […] To study the imaging of TPipBDP with Aβ1–42 aggregates, the imaging effect of TPipBDP with Aβ1–42 aggregates was studied in PC12 cells. […] After adding Aβ1–42 aggregates to PC12 cells, some smaller‐than‐cell green fluorescence (ThT) and red fluorescence (TPipBDP) spots were observed. These smaller‐than‐cell bright fluorescence spots were Aβ1–42 aggregates. The Aβ1–42 aggregates can be clearly observed in the bright field image. […]
# After that, the gradient concentration of probes or Aβ was removed and MTT (5× MTT was diluted into 1× MTT using dilution buffer, 50 μL per well) was added; t he mix ture was incubated at 37 °C for 4 h. […] The cell viabilit y was determined by a microplate reader at 490 nm.
# To a centrifuge tub e (containing 1 mg of Aβ42) was added 180 μL of DMSO and 720 μL of PBS (pH = 7.2-7.4, Hyclone) and 1% hydrox ylamine solution (100 μL); the solution was shaken on a shaker (300 rpm) at 37 °C for 7 da ys to form the Aβ42 aggregates. Initial peptide concentrations were determined spectrophotometricall y at 280 nm, using an extinction coefficient of 1280 M-1cm-1. […]
# Aβ aggregates = conditions: reported probe; ref (8); cited from earlier work
smiles,measurement,setting,value
CC1=CC(C)=[N+]2C1=Cc1c(C)cc(/C=C/c3ccc(N4CCCC4)s3)n1[B-]2(F)F [TPyrBDP],Kd,Aβ1–42 aggregates [1],54.2 ± 5.82 nM
same,"Em, with Aβ",Aβ1–42 aggregates [2],693 nm
same,"Em shift, with Aβ",Aβ1–42 aggregates [2],+13 nm
same,λem redshift after interacting with Aβ1–42 aggregates,Aβ1–42 aggregates [2]; PBS (10% ethanol),≈ 13 nm
same,Fluorescence enhancement (Fold = FL intensity probe+Aβ / probe),Aβ1–42 aggregates [2],42.48 fold and 42.5 fold
same,Staining of Aβ1–42 aggregates in solution,Aβ1–42 aggregates [3],stained Aβ1–42 aggregates successfully
same,"Pearson correlation coefficient (R-value) with ThT, cortex region",[4],0.85
same,"Pearson correlation coefficient (R-value) with ThT, hippocampus region",[4],0.87
same,viability at 24 h,Cytotoxicity MTT assay,> 80%
same,hemolysis at 3 h,Hemolysis rate assay,< 5%
CC1=CC(C)=[N+]2C1=Cc1c(C)cc(/C=C/c3ccc(N4CCCCC4)s3)n1[B-]2(F)F [TPipBDP],Kd,Aβ1–42 aggregates [1],28.3 ± 5.94 nM
same,"Em, with Aβ",Aβ1–42 aggregates [2],692 nm
same,"Em shift, with Aβ",Aβ1–42 aggregates [2],-27 nm
same,λem blueshift after interacting with Aβ1–42 aggregates,Aβ1–42 aggregates [2]; PBS (10% ethanol),≈ 27 nm
same,Fluorescence enhancement (Fold = FL intensity probe+Aβ / probe),Aβ1–42 aggregates [2],75.54 fold and 75.5 fold
same,viability at 24 h,Cytotoxicity MTT assay,> 80%
same,hemolysis at 3 h,Hemolysis rate assay,< 5%
same,"R-value (colocalization with ThT), probe + Aβ group",[5]; PC12 cells with Aβ1–42 aggregates (10 µM),0.84
same,"R-value (colocalization with ThT), control group",[5]; PC12 cells without Aβ,0.65
Cc1cc(/C=C/c2ccc(N(C)C)cc2)n2c1C=C1C=CC=[N+]1[B-]2(F)F [BAP-1],Kd,Aβ aggregates,44.1 nM
CC1=CC(C)=[N+]2C1=Cc1c(C)cc(/C=C/c3ccc(N4CCCCCC4)s3)n1[B-]2(F)F [THAIBDP],Kd,Aβ1–42 aggregates [1],28.2 ± 3.07 nM
same,"Em, with Aβ",Aβ1–42 aggregates [2],701 nm
same,"Em shift, with Aβ",Aβ1–42 aggregates [2],-22 nm
same,λem blueshift after interacting with Aβ1–42 aggregates,Aβ1–42 aggregates [2]; PBS (10% ethanol),≈ 22 nm
same,Fluorescence enhancement (Fold = FL intensity probe+Aβ / probe),Aβ1–42 aggregates [2],27.23 fold and 27.2 fold
same,Staining of Aβ1–42 aggregates in solution,Aβ1–42 aggregates [3],stained Aβ1–42 aggregates successfully
same,"Pearson correlation coefficient (R-value) with ThT, hippocampus region",[4],0.72
same,viability at 24 h,Cytotoxicity MTT assay,> 80%
same,hemolysis at 3 h,Hemolysis rate assay,< 5%
